{"source": "PubChem BioAssay (NCI)", "experiment_in_all_cases": "NCI-60 cell line screen, 48 h", "key": {"NCI-H23 lung": {"system": "NCI-H23 lung"}, "NCI-H460 lung": {"system": "NCI-H460 lung"}, "NCI-H522 lung": {"system": "NCI-H522 lung"}, "NCI/ADR-RES ovarian": {"system": "NCI/ADR-RES ovarian"}, "OVCAR-3 ovarian": {"system": "OVCAR-3 ovarian"}, "OVCAR-4 ovarian": {"system": "OVCAR-4 ovarian"}, "OVCAR-5 ovarian": {"system": "OVCAR-5 ovarian"}, "OVCAR-8 ovarian": {"system": "OVCAR-8 ovarian"}, "PC-3 prostate": {"system": "PC-3 prostate"}, "RPMI-8226 leukemia": {"system": "RPMI-8226 leukemia"}, "RXF 393 renal": {"system": "RXF 393 renal"}, "SF-268 CNS": {"system": "SF-268 CNS"}, "SF-295 CNS": {"system": "SF-295 CNS"}, "SF-539 CNS": {"system": "SF-539 CNS"}, "SK-MEL-2 melanoma": {"system": "SK-MEL-2 melanoma"}, "SK-MEL-28 melanoma": {"system": "SK-MEL-28 melanoma"}, "SK-MEL-5 melanoma": {"system": "SK-MEL-5 melanoma"}, "SK-OV-3 ovarian": {"system": "SK-OV-3 ovarian"}, "SN12C renal": {"system": "SN12C renal"}, "SNB-19 CNS": {"system": "SNB-19 CNS"}, "SNB-75 CNS": {"system": "SNB-75 CNS"}, "SR leukemia": {"system": "SR leukemia"}, "SW-620 colon": {"system": "SW-620 colon"}, "T-47D breast": {"system": "T-47D breast"}, "TK-10 renal": {"system": "TK-10 renal"}, "U251 CNS": {"system": "U251 CNS"}, "UACC-257 melanoma": {"system": "UACC-257 melanoma"}, "UACC-62 melanoma": {"system": "UACC-62 melanoma"}, "UO-31 renal": {"system": "UO-31 renal"}}, "note": "Where “and” joins values, the source holds several entries; their conditions need not be identical. Equal values may be shown once.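 How tested: cells in 96-well plates exposed to compound for 48 hours at five concentrations. Here, GI50 denotes the concentration required for 50% inhibition of growth. At the TGI there is no net growth.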", "data": [{"compound": "COc1ccc(F)c(F)c1C(=O)c1cnc(NC2CCN(S(C)(=O)=O)CC2)nc1N", "values": [{"measurement": "GI50", "setting": "NCI-H23 lung", "result": "0.814 µM and 0.397 µM"}, {"measurement": "TGI", "setting": "NCI-H23 lung", "result": "5.28 µM and 3.3 µM"}, {"measurement": "GI50", "setting": "NCI-H460 lung", "result": "0.165 µM and 0.117 µM"}, {"measurement": "TGI", "setting": "NCI-H460 lung", "result": "> 100", "unit": "µM"}, {"measurement": "GI50", "setting": "NCI-H522 lung", "result": "2.38 µM and 1.62 µM"}, {"measurement": "TGI", "setting": "NCI-H522 lung", "result": "6.97 µM and 5.86 µM"}, {"measurement": "GI50", "setting": "NCI/ADR-RES ovarian", "result": "2.63 µM and 1.65 µM"}, {"measurement": "TGI", "setting": "NCI/ADR-RES ovarian", "result": "> 100", "unit": "µM"}, {"measurement": "GI50", "setting": "OVCAR-3 ovarian", "result": "0.961 µM and 0.588 µM"}, {"measurement": "TGI", "setting": "OVCAR-3 ovarian", "result": "5.26 µM and 6.56 µM"}, {"measurement": "GI50", "setting": "OVCAR-4 ovarian", "result": "1.44 µM and 1.41 µM"}, {"measurement": "TGI", "setting": "OVCAR-4 ovarian", "result": "> 27.9", "unit": "µM"}, {"measurement": "GI50", "setting": "OVCAR-5 ovarian", "result": "0.728 µM and 0.251 µM"}, {"measurement": "TGI", "setting": "OVCAR-5 ovarian", "result": "> 100", "unit": "µM"}, {"measurement": "GI50", "setting": "OVCAR-8 ovarian", "result": "1.18 µM and 0.58 µM"}, {"measurement": "TGI", "setting": "OVCAR-8 ovarian", "result": "> 100", "unit": "µM"}, {"measurement": "GI50", "setting": "PC-3 prostate", "result": "0.385 µM and 0.411 µM"}, {"measurement": "TGI", "setting": "PC-3 prostate", "result": "5.44 µM and 5.92 µM"}, {"measurement": "GI50", "setting": "RPMI-8226 leukemia", "result": "0.791 µM and 0.353 µM"}, {"measurement": "TGI", "setting": "RPMI-8226 leukemia", "result": "4.98 µM and 5.57 µM"}, {"measurement": "GI50", "setting": "RXF 393 renal", "result": "0.286 µM and 0.149 µM"}, {"measurement": "TGI", "setting": "RXF 393 renal", "result": "1.48 µM and 0.423 µM"}, {"measurement": "GI50", "setting": "SF-268 CNS", "result": "1.14 µM and 0.527 µM"}, {"measurement": "TGI", "setting": "SF-268 CNS", "result": "7.16 µM and > 7.59 µM"}, {"measurement": "GI50", "setting": "SF-295 CNS", "result": "0.693 µM and 0.352 µM"}, {"measurement": "TGI", "setting": "SF-295 CNS", "result": "> 100", "unit": "µM"}, {"measurement": "GI50", "setting": "SF-539 CNS", "result": "0.536 µM and 0.406 µM"}, {"measurement": "TGI", "setting": "SF-539 CNS", "result": "3.13 µM and 3.07 µM"}, {"measurement": "GI50", "setting": "SK-MEL-2 melanoma", "result": "1.07 µM and 1.15 µM"}, {"measurement": "TGI", "setting": "SK-MEL-2 melanoma", "result": "2.96 µM and 3.48 µM"}, {"measurement": "GI50", "setting": "SK-MEL-28 melanoma", "result": "1.06 µM and 0.412 µM"}, {"measurement": "TGI", "setting": "SK-MEL-28 melanoma", "result": "> 27.2 µM and 4.78 µM"}, {"measurement": "GI50", "setting": "SK-MEL-5 melanoma", "result": "0.369 µM and 0.399 µM"}, {"measurement": "TGI", "setting": "SK-MEL-5 melanoma", "result": "4.64 µM and > 7.12 µM"}, {"measurement": "GI50", "setting": "SK-OV-3 ovarian", "result": "4.35 µM and 4.24 µM"}, {"measurement": "TGI", "setting": "SK-OV-3 ovarian", "result": "> 100", "unit": "µM"}, {"measurement": "GI50", "setting": "SN12C renal", "result": "0.94 µM and 0.477 µM"}, {"measurement": "TGI", "setting": "SN12C renal", "result": "> 100", "unit": "µM"}, {"measurement": "GI50", "setting": "SNB-19 CNS", "result": "0.576 µM and 0.445 µM"}, {"measurement": "TGI", "setting": "SNB-19 CNS", "result": "> 100", "unit": "µM"}, {"measurement": "GI50", "setting": "SNB-75 CNS", "result": "1.26 µM and 1.09 µM"}, {"measurement": "TGI", "setting": "SNB-75 CNS", "result": "3.62 µM and 2.73 µM"}, {"measurement": "GI50", "setting": "SR leukemia", "result": "0.188 µM and 0.114 µM"}, {"measurement": "GI50", "setting": "SW-620 colon", "result": "0.183 µM and 0.108 µM"}, {"measurement": "TGI", "setting": "SW-620 colon", "result": "> 100", "unit": "µM"}, {"measurement": "GI50", "setting": "T-47D breast", "result": "1.04 µM and 0.678 µM"}, {"measurement": "TGI", "setting": "T-47D breast", "result": "11.8 µM and > 8.01 µM"}, {"measurement": "GI50", "setting": "TK-10 renal", "result": "0.493 µM and 0.333 µM"}, {"measurement": "TGI", "setting": "TK-10 renal", "result": "> 20.3", "unit": "µM"}, {"measurement": "GI50", "setting": "U251 CNS", "result": "0.484 µM and 0.371 µM"}, {"measurement": "TGI", "setting": "U251 CNS", "result": "> 100", "unit": "µM"}, {"measurement": "GI50", "setting": "UACC-257 melanoma", "result": "1.44 µM and 1.61 µM"}, {"measurement": "TGI", "setting": "UACC-257 melanoma", "result": "6.38 µM and 8.94 µM"}, {"measurement": "GI50", "setting": "UACC-62 melanoma", "result": "0.655 µM and 0.284 µM"}, {"measurement": "TGI", "setting": "UACC-62 melanoma", "result": "2.77 µM and 2.45 µM"}, {"measurement": "GI50", "setting": "UO-31 renal", "result": "0.779 µM and 0.36 µM"}, {"measurement": "TGI", "setting": "UO-31 renal", "result": "6.96 µM and > 9.24 µM"}]}]}
